# Source: patent publication US10323026B2, “Heterocyclic compound” (Takeda Pharmaceutical Company Limited, priority 2016, dated 2019)
# Molecular target: T1, His-hMAGL (recombinant polyhistidine tagged human MAGL protein) (Homo sapiens, UniProt Q99685)
# T1 construct: polyhistidine (His) (N); made in house; host or cells: E. coli BL21(DE3)
# T1 sequence (Q99685 1-303): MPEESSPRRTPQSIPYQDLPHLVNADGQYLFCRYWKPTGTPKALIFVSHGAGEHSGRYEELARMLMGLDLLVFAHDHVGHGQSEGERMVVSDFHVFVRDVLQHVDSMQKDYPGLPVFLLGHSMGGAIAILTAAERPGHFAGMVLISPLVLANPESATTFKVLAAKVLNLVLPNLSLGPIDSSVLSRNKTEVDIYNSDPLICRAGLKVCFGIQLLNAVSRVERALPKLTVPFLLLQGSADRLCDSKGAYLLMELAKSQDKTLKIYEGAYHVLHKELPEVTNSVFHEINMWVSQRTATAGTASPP
# Assay: Measurement of MAGL inhibitory activity (RapidFire-mass spectrometry of arachidonic acid produced from 2-arachidonylglycerol)
# Format: biochemical
# Details: test compound 10 μM; His-hMAGL; substrate 2-arachidonylglycerol; 60 min preincubation
# Protocol: Furthermore, acetonitrile (50 μL) containing 3 μM arachidonic acid-d8 (Cayman Chemical Company) was added and the mixture was stirred.
# The amount of arachidonic acid in the obtained enzyme reaction mixture was calculated by measuring by RapidFire-mass spectrometry and correcting by the amount of arachidonic acid-d8. High Throughput online solid phase extraction was performed using RapidFire 300™ system (Agilent Technologies, Inc.). Samples were loaded on SPE C4 cartridge (Agilent Technologies, Inc.) and desalted with 0.2 (v/v) % acetic acid (Wako Pure Chemical Industries, Ltd.) in ultrapure water/acetonitrile (70/30, v/v) at a flow rate of 1.5 mL/min, eluted at a flow rate of 0.5 mL/min with 0.2(v/v) % acetic acid dissolved in acetonitrile/ultrapure water (90/10, v/v), and injected into the mass spectrometry part. The injection needle was washed with ultrapure water (500 millisecond) and acetonitrile (500 millisecond) to minimize carry-over. […] The RapidFire300 system was controlled by RapidFire UI software version 3.6 (Agilent Technologies, Inc.).
# The mass spectrometry of the resultant product was performed using API4000™ triple quadrupole mass spectrometer (AB SCIEX) equipped with an electrospray ion source (TurboIon Spray™) in a negative selected reaction monitoring (SRM) mode. The conditions of SRM are shown below. The parameters of the instrument were optimized as follows: capillary temperature 600° C., ion spray voltage −4.5 kV, collision gas 8, curtain gas 15 psi, ion source gas 1 60 psi, ion source gas 2 60 psi. The mass spectrometer was controlled by Analyst™ software version 1.5.1 (AB SCIEX). The peak area integration was analyzed using RapidFire integrator software version 3.6 (Agilent Technologies, Inc.).
# MAGL inhibitory rate (%) was calculated according to the following calculation formula. (1-(arachidonic acid production amount of test compound addition group−arachidonic acid production amount of enzyme-free group)÷(arachidonic acid production amount of test compound-free group−arachidonic acid production amount of enzyme-free group))×100
row,% inhibition (10 μM),SMILES
1,100%,"CC(Oc1ccc(F)cc1C(F)(F)F)C1CCN(C(=O)[C@H]2C[C@]3(COC(=O)N3)C2)CC1 (some centres unmarked) [Example 66, (2s,4s)-2-((4-(1-(4-fluoro-2-(trifluoromethyl)phenoxy)ethyl)piperidin-1-yl)carbonyl)-7-oxa-5-azaspiro[3.4]octan-6-one]"
2,100%,"Cc1ccc(OC(C)C2CCN(C(=O)[C@H]3C[C@]4(COC(=O)N4)C3)CC2)c(F)c1 (some centres unmarked) [Example 46, (2s,4s)-2-((4-(1-(2-fluoro-4-methylphenoxy)ethyl)piperidin-1-yl)carbonyl)-7-oxa-5-azaspiro[3.4]octan-6-one]"

# Same assay, conditions: test compound 10 μM; His-hMAGL; substrate 2-arachidonylglycerol; 60 min preincubation; 10 µM
row,% inhibition (10 μM),SMILES
1,100%,"CC1(C2CCN(C(=O)[C@H]3C[C@]4(COC(=O)N4)C3)CC2)Cc2cc(C(F)(F)F)ccc2O1 (some centres unmarked) [Example 68, (2s,4s)-2-((4-(2-methyl-5-(trifluoromethyl)-2,3-dihydro-1-benzofuran-2-yl)piperidin-1-yl)carbonyl)-7-oxa-5-azaspiro[3.4]octan-6-one]"
2,101%,"Cc1cc(F)ccc1OC(C)C1CCN(C(=O)[C@H]2C[C@]3(COC(=O)N3)C2)CC1 (some centres unmarked) [Example 34, (2s,4s)-2-((4-(1-(4-fluoro-2-methylphenoxy)ethyl)piperidin-1-yl)carbonyl)-7-oxa-5-azaspiro[3.4]octan-6-one]"
3,101%,"CC1(C2CCN(C(=O)[C@H]3C[C@]4(COC(=O)N4)C3)CC2)Cc2ccc(C(F)(F)F)cc2O1 (some centres unmarked) [Example 71, (2s,4s)-2-((4-(2-methyl-6-(trifluoromethyl)-2,3-dihydro-1-benzofuran-2-yl)piperidin-1-yl)carbonyl)-7-oxa-5-azaspiro[3.4]octan-6-one]"
4,101%,"CC1(C2CCN(C(=O)[C@H]3C[C@]4(COC(=O)N4)C3)CC2)Cc2ccc(C(F)(F)F)cc2O1 (some centres unmarked) [Example 70, (2s,4s)-2-((4-(2-methyl-6-(trifluoromethyl)-2,3-dihydro-1-benzofuran-2-yl)piperidin-1-yl)carbonyl)-7-oxa-5-azaspiro[3.4]octan-6-one]"
5,100%,"CC(Oc1ccc(F)c(F)c1F)C1CCN(C(=O)[C@H]2C[C@]3(COC(=O)N3)C2)CC1 (some centres unmarked) [Example 82, (2s,4s)-2-((4-(1-(2,3,4-trifluorophenoxy)ethyl)piperidin-1-yl)carbonyl)-7-oxa-5-azaspiro[3.4]octan-6-one]"
6,100%,"CC(Oc1ccc(F)c(F)c1F)C1CCN(C(=O)[C@H]2C[C@]3(COC(=O)N3)C2)CC1 (some centres unmarked) [Example 81, (2s,4s)-2-((4-(1-(2,3,4-trifluorophenoxy)ethyl)piperidin-1-yl)carbonyl)-7-oxa-5-azaspiro[3.4]octan-6-one]"

# Same assay, conditions: test compound 10 μM; His-hMAGL; substrate 2-arachidonylglycerol; 60 min preincubation; read-out: % inhibition (10 μM)
row,inhibition at 10 µM,SMILES
1,100%,"CC1(C2CCN(C(=O)[C@H]3C[C@]4(CCC(=O)N4)C3)CC2)Cc2cc(F)ccc2O1 (some centres unmarked) [Example 5, (2r,4s)-2-((4-(5-fluoro-2-methyl-2,3-dihydro-1-benzofuran-2-yl)piperidin-1-yl)carbonyl)-5-azaspiro[3.4]octan-6-one]"
2,100%,"O=C1N[C@]2(CO1)C[C@H](C(=O)N1CCC(OCc3ccc(Cl)cc3Cl)CC1)C2 [Example 24, (2s,4s)-2-((4-((2,4-dichlorobenzyl)oxy)piperidin-1-yl)carbonyl)-7-oxa-5-azaspiro[3.4]octan-6-one]"
3,100%,"N#Cc1ccc(OCC2CCN(C(=O)[C@H]3C[C@]4(COC(=O)N4)C3)CC2)c(Cl)c1 [Example 130, 3-chloro-4-((1-(((2s,4s)-6-oxo-7-oxa-5-azaspiro[3.4]oct-2-yl)carbonyl)piperidin-4-yl)methoxy)benzonitile]"
4,100%,"CC(Oc1ccc(F)cc1C(F)(F)F)C1CCN(C(=O)[C@H]2C[C@]3(CCC(=O)N3)C2)CC1 (some centres unmarked) [Example 73, (2r,4s)-2-((4-(1-(4-fluoro-2-(trifluoromethyl)phenoxy)ethyl)piperidin-1-yl)carbonyl)-5-azaspiro[3.4]octan-6-one]"
5,100%,"O=C1N[C@]2(CO1)C[C@H](C(=O)N1CC(CC(F)(F)c3ccc(C(F)(F)F)c(F)c3)C1)C2 [Example 99, (2s,4s)-2-((3-(2,2-difluoro-2-(3-fluoro-4-(trifluoromethyl)phenyl)ethyl)azetidin-1-yl)carbonyl)-7-oxa-5-azaspiro[3.4]octan-6-one]"
6,100%,"O=C1N[C@]2(CO1)C[C@H](C(=O)N1CC(COc3c(Cl)cc(F)cc3Cl)C1)C2 [Example 75, (2s,4s)-2-((3-((2,6-dichloro-4-fluorophenoxy)methyl)azetidin-1-yl)carbonyl)-7-oxa-5-azaspiro[3.4]octan-6-one]"
7,100%,"O=C1N[C@]2(CO1)C[C@H](C(=O)N1CC(COc3ccc(Cl)cc3Cl)C1)C2 [Example 79, (2s,4s)-2-((3-((2,4-dichlorophenoxy)methyl)azetidin-1-yl)carbonyl)-7-oxa-5-azaspiro[3.4]octan-6-one]"
8,101%,"CC(c1ccccc1)(c1ccccc1)C1CCN(C(=O)[C@H]2C[C@]3(COC(=O)N3)C2)CC1 [Example 51, (2s,4s)-2-((4-(1,1-diphenylethyl)piperidin-1-yl)carbonyl)-7-oxa-5-azaspiro[3.4]octan-6-one]"
9,100%,"CC(Oc1ccc(C(F)(F)F)cc1F)C1CN(C(=O)[C@H]2C[C@]3(COC(=O)N3)C2)C1 (some centres unmarked) [Example 10, (2s,4s)-2-((3-(1-(2-fluoro-4-(trifluoromethyl)phenoxy)ethyl)azetidin-1-yl)carbonyl)-7-oxa-5-azaspiro[3.4]octan-6-one]"
10,100%,"O=C1N[C@]2(CO1)C[C@H](C(=O)N1CC(CC(F)(F)c3ccc(Cl)c(C(F)(F)F)c3)C1)C2 [Example 118, (2s,4s)-2-((3-(2-(4-chloro-3-(trifluoromethyl)phenyl)-2,2-difluoroethyl)azetidin-1-yl)carbonyl)-7-oxa-5-azaspiro[3.4]octan-6-one]"
11,100%,"Cc1ccc(COCC2CN(C(=O)[C@H]3C[C@]4(COC(=O)N4)C3)C2)cc1Cl [Example 120, (2s,4s)-2-((3-(((3-chloro-4-methylbenzyl)oxy)methyl)azetidin-1-yl)carbonyl)-7-oxa-5-azaspiro[3.4]octan-6-one]"
12,101%,"CC(Oc1ccc(Cl)cc1F)C1CCN(C(=O)[C@H]2C[C@]3(COC(=O)N3)C2)CC1 (some centres unmarked) [Example 18, (2s,4s)-2-((4-(1-(4-chloro-2-fluorophenoxy)ethyl)piperidin-1-yl)carbonyl)-7-oxa-5-azaspiro[3.4]octan-6-one]"
13,100%,"CC(Oc1ccc(F)cc1C(F)(F)F)C1CCN(C(=O)[C@H]2C[C@]3(COC(=O)N3)C2)CC1 (some centres unmarked) [Example 59, (2s,4s)-2-((4-(1-(4-fluoro-2-(trifluoromethyl)phenoxy)ethyl)piperidin-1-yl)carbonyl)-7-oxa-5-azaspiro[3.4]octan-6-one]"
14,101%,"CC(Oc1ccc(F)c(F)c1F)C1CCN(C(=O)[C@H]2C[C@]3(COC(=O)N3)C2)CC1 (some centres unmarked) [Example 80, (2s,4s)-2-((4-(1-(2,3,4-trifluorophenoxy)ethyl)piperidin-1-yl)carbonyl)-7-oxa-5-azaspiro[3.4]octan-6-one]"
15,100%,"O=C1N[C@]2(CO1)C[C@H](C(=O)N1CC(CC(F)(F)c3ccc(C(F)(F)F)cc3Cl)C1)C2 [Example 117, (2s,4s)-2-((3-(2-(2-chloro-4-(trifluoromethyl)phenyl)-2,2-difluoroethyl)azetidin-1-yl)carbonyl)-7-oxa-5-azaspiro[3.4]octan-6-one]"
16,100%,"O=C1N[C@]2(CO1)C[C@H](C(=O)N1CCC(COc3ccc(F)cc3Cl)(C(F)(F)F)CC1)C2 [Example 48, (2s,4s)-2-((4-((2-chloro-4-fluorophenoxy)methyl)-4-(trifluoromethyl)piperidin-1-yl)carbonyl)-7-oxa-5-azaspiro[3.4]octan-6-one]"
17,100%,"O=C1COC[C@]2(C[C@H](C(=O)N3CCC(COc4ccc(F)cc4Cl)CC3)C2)N1 [Example 25, (2s,4s)-2-((4-((2-chloro-4-fluorophenoxy)methyl)piperidin-1-yl)carbonyl)-8-oxa-5-azaspiro[3.5]nonan-6-one]"
18,100%,"O=C1N[C@]2(CO1)C[C@H](C(=O)N1CC(COc3cc(C(F)(F)F)cc(C(F)(F)F)c3)C1)C2 [Example 83, (2s,4s)-2-((3-((3,5-bis(trifluoromethyl)phenoxy)methyl)azetidin-1-yl)carbonyl)-7-oxa-5-azaspiro[3.4]octan-6-one]"
